How the values were obtained:
[1] = tested on: Human umbilical vein endothelial cells (HUVECs); experiment: HDL-induced endothelial NO release, DAN assay; assay type: cell-based; conditions: HDL 50 μg/ml preincubated 3 h with 10, 20, 50 μg/ml; HUVECs 2 h
Method: HUVECs were stimulated for 2 h with HDL (50 μg/ml) preincubated with DMSO, lyso-DGTS and S1P at final concentrations of 10, 20, and 50 μg/ml for 3 h. Media were then collected and treated with nitrate reductase followed by analysis using the DAN assay. Data are expressed as NO concentration (μM) released by the cells. Each experiment was repeated separately at least three times. *p<0.05, ***p<0.0001 related to the control (HDL without lyso-DGTS or S1P). Statistics were analyzed using one-way annova Graphpad prism 5 software.
Human umbilical vein endothelial cells (HUVECs) were incubated for 2 hours with HDL preincubated with different concentration of lyso-DGTS or S1P for 3 hours, and NO production determined using 2,3-diaminonapthalene (DAN) assay.

J774A.1 macrophages = conditions: as previously shown; cited from earlier work
rePON1 = conditions: 25° C.; Cohen et al., 2014; cited from earlier work
PON1 = PON1 (Homo sapiens, UniProt P27169); conditions: Cohen et al., 2014; cited from earlier work
Sequence of PON1 (P27169 whole entry, species assumed): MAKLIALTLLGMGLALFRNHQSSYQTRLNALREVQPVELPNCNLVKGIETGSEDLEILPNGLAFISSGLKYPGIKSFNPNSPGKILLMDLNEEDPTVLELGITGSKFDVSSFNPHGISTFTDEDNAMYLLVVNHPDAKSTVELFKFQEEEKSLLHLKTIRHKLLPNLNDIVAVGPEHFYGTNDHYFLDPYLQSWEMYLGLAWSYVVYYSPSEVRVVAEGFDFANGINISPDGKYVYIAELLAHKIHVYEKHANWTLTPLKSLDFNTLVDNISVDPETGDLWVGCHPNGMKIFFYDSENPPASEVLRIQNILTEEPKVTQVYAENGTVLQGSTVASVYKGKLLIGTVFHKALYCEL

Row | Compound | effect on HDL ability to induce endothelial NO release [1] | effect on PON1 uptake by macrophage cells (J774A.1 macrophages) | Binding constant Ka to PON1 (rePON1) | decrease of the ratio between HDL-PON1 and free-PON1 (PON1)
1 | CCCCCCCCCCCCC/C=C/[C@@H](O)[C@@H](N)COP(=O)(O)O [S1P, Sphingosine 1-Phosphate, reference compound] | significantly increased the HDL ability to induce endothelial NO release at a dose dependent manner |  |  | 
2 | PC 16:0 18:2 |  | enhance PON1 uptake by macrophage cells | 1680 M⁻¹ | 50%
